{"source": "paper PMC9764189", "about": "(The Journal of Biological Chemistry, 2022)", "key": {"[1]": {"target": "MR1 (Homo sapiens, UniProt Q95460)", "sequence (Q95460 23-302 limits assumed)": "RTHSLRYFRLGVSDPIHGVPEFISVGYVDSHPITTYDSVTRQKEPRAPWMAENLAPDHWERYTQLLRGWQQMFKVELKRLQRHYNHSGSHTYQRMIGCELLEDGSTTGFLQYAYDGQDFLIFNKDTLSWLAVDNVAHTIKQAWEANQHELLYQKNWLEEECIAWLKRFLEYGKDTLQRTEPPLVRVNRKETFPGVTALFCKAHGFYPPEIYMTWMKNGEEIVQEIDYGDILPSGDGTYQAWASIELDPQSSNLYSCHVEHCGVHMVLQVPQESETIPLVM", "sequence (P61769 21-119 partner)": "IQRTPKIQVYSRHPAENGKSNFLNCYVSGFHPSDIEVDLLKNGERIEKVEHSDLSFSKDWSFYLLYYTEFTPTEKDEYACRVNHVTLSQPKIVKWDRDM", "experiment": "biochemical", "format": "binding", "settings": "for IC50: IC50, 10 nM JYM20, 100 nM MR1-empty, 25 °C, pH 7.5; for Binder category (ligand affinity for MR1): category by IC50"}, "[2]": {"tested_on": "C1R.MR1 cells"}}, "note": "Read-outs that look alike come from different tables or passages of the source."}
{"smiles": "O=Cc1cccc(C(=O)O)c1O", "note": "[3-F-SA, 3-formylsalicylic acid]", "values": [{"measurement": "IC50", "setting": "[1]", "value": 0.563, "unit": "µM"}]}
{"smiles": "O=C(O)CCNC(=O)c1cc(=O)[nH]c(=O)[nH]1", "note": "[DB28, 3-[(2,6-dioxo-1,2,3,6-tetrahydropyrimidin-4-yl)formamido]propanoic acid]", "values": [{"measurement": "IC50", "setting": "[1]", "value": 20, "unit": "µM"}]}
{"smiles": "O=C(O)Cc1ccccc1Nc1c(Cl)cccc1Cl", "note": "[DCF, diclofenac]", "values": [{"measurement": "IC50", "setting": "[1]", "value": 2600, "unit": "µM"}]}
{"smiles": "CCOc1cc(C=O)ccc1O", "note": "[Ethylvanillin, ethylvanillin]", "values": [{"measurement": "IC50", "setting": "[1]", "value": 325, "unit": "µM"}, {"measurement": "Upregulation of surface MR1", "setting": "[2]; 3 h incubation", "value": "upregulated"}, {"measurement": "Upregulation of surface MR1", "setting": "[2]; 16 h incubation", "value": "no noticeable upregulation"}]}
{"smiles": "COc1ccc(O)c(C=O)c1", "note": "[HMB, 2-hydroxy-5-methoxybenzaldehyde]", "values": [{"measurement": "IC50", "setting": "[1]", "value": 775, "unit": "µM"}, {"measurement": "Binder category (ligand affinity for MR1)", "setting": "[1]", "value": "weak (weak (IC50 > 100 μM))"}]}
{"smiles": "COc1cc(C=O)ccc1O", "note": "[Vanillin, vanillin]", "values": [{"measurement": "IC50", "setting": "[1]", "value": 325, "unit": "µM"}, {"measurement": "Binder category (ligand affinity for MR1)", "setting": "[1]", "value": "weak (weak (IC50 > 100 μM))"}, {"measurement": "Upregulation of surface MR1", "setting": "[2]; 3 h incubation", "value": "upregulated"}, {"measurement": "Concentration at which MR1 was upregulated significantly", "setting": "[2]; 3 h incubation, versus DMSO", "value": 10, "unit": "µM"}, {"measurement": "Upregulation of surface MR1", "setting": "[2]; 16 h incubation", "value": "modest increase"}]}
